Test results taken from EP0155825A2, “Novel choline derivatives” (NITTO BOSEKI CO., LTD., priority 1984, dated 1985).

Experiment: Stability against non-enzymatic hydrolysis in buffer
Format: physicochemical
Details: 1/15 molar phosphate buffer (pH 8.20) at 37°C for 90 minutes

Compound: C[N+](C)(C)CCOC(=O)c1ccc(O)c(O)c1.[I-] [DHBCI, 3,4-dihydroxybenzoylcholine iodide]
- non-enzymatic hydrolysis: substantially no hydrolysis
